Experimental data as given in patent US20070043010A1, “Quinazoline derivatives” (ASTRAZENECA UK LIMITED, priority 2003, published 2007).

System: KB cells
Assay: EGFR driven KB cell proliferation assay, Test (b)
Format: cell-based
Details: Homo sapiens, 96 h, EGF 1 ng/ml, 4 days, MTT
Procedure: This assay measures the ability of a test compound to inhibit the proliferation of KB cells (human naso-pharangeal carcinoma obtained from the American Type Culture Collection (ATCC).
KB cells (human naso-pharangeal carcinoma obtained from the ATCC were cultured in Dulbecco's modified Eagle's medium (DMEM) containing 10% foetal calf serum, 2 mM glutamine and non-essential amino acids at 37° C. in a 7.5% CO2 air incubator. Cells were harvested from the stock flasks using Trypsin/ethylaminediaminetetraacetic acid (EDTA). Cell density was measured using a haemocytometer and viability was calculated using trypan blue solution before being seeded at a density of 1.25×10^3 cells per well of a 96 well plate in DMEM containing 2.5% charcoal stripped serum, 1 mM glutamine and non-essential amino acids at 37° C. in 7.5% CO2 and allowed to settle for 4 hours.
Following adhesion to the plate, the cells are treated with or without EGF (final concentration of 1 ng/ml) and with or without compound at a range of concentrations in dimethylsulfoxide (DMSO) (0.1% fial) before incubation for 4 days. Following the incubation period, cell numbers were determined by addition of 50 μl of 3-(4,5-Dimethylthiazol-2-yl)-2,5-diphenyltetrazolium bromide (MTT) (stock 5 mg/ml) for 2 hours. MTT solution was then tipped off, the plate gently tapped dry and the cells dissolved upon the addition of 100 μl of DMSO.
Absorbance of the solubilised cells was read at 540 nm using a Molecular Devices ThermoMax microplate reader. Inhibition of proliferation was expressed as an IC50 value. This was determined by calculation of the concentration of compound that was required to give 50% inhibition of proliferation. The range of proliferation was calculated from the positive (vehicle plus EGF) and negative (vehicle minus EGF) control values.

SMILES: COc1cc2ncnc(Nc3cccc(Cl)c3F)c2cc1O[C@H]1C[C@H](C(=O)NCCNC(C)=O)N(C)C1 [Compound 11-13, (4S)—N-[2-(acetylamino)ethyl]-4-({4-[(3-chloro-2-fluorophenyl)amino]-7-methoxyquinazolin-6-yl}oxy)-1-methyl-D-prolinamide]
- IC50: 144 nM

SMILES: COc1cc2ncnc(Nc3cccc(Cl)c3F)c2cc1O[C@H]1C[C@H](C(=O)N[C@H]2COC[C@@H]2O)N(C)C1 [Compound 11-14, (4S)-4-({4-[(3-chloro-2-fluorophenyl)amino]-7-methoxyquinazolin-6-yl}oxy)-N-[(3S,4R)-4-hydroxytetrahydrofuran-3-yl]-1-methyl-D-prolinamide]
- IC50: 139 nM

SMILES: COc1cc2ncnc(Nc3cccc(Cl)c3F)c2cc1O[C@@H]1C[C@@H](C(=O)NCCC#N)N(C)C1 [Compound 13-3]
- IC50: 63 nM
